ChEMBL document CHEMBL1201862, “PubChem BioAssay data set” (2004)
Activity calls are given as the source filed them.

Tests used:
LIM domain kinase 1 = LIM domain kinase 1 (Homo sapiens, UniProt P53667); assay: Navigating the Kinome. Panel member name: LIMK1; format: functional
[1] = target: RAC-gamma serine/threonine-protein kinase (Homo sapiens, UniProt Q9Y243); format: functional
[2] = target: Interleukin-1 receptor-associated kinase 4 (Homo sapiens, UniProt Q9NWZ3); format: functional
[3] = target: Dual specificity tyrosine-phosphorylation-regulated kinase 1A (Homo sapiens, UniProt Q13627); format: functional;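 also: measured against DYRK1A as one member of a broad kinome profiling panel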
[4] = target: Mitogen-activated protein kinase 9 (Homo sapiens, UniProt P45984); format: functional;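 also: value from a kinome panel profiling assay, MAPK9 panel entry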
[5] = target: T1, Serine/threonine-protein kinase Nek2 (Homo sapiens, UniProt P51955); format: functional
T1 sequence (P51955 whole entry): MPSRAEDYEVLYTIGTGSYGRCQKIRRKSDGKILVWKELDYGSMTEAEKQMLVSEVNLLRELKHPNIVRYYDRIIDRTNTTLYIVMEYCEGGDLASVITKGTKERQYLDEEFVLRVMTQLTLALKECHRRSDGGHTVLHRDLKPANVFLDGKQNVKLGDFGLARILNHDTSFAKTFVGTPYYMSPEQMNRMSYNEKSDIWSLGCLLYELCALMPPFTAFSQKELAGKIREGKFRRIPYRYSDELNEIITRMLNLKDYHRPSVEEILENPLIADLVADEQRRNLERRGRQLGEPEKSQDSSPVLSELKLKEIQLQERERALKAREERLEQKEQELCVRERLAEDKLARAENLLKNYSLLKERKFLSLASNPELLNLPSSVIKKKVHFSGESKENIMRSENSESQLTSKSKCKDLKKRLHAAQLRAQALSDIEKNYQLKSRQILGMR

[6] = target: Cyclin-dependent kinase 1 (Homo sapiens, UniProt P06493); format: functional;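 also: Kinome-wide panel profiling, with the target listed as panel member CDC2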
[7] = target: Rho-associated protein kinase 1 (Homo sapiens, UniProt Q13464); format: functional;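 also: measured within a broad kinome-wide panel profiling many kinases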
[8] = target: Serine/threonine-protein kinase PAK 1 (Homo sapiens, UniProt Q13153); format: functional
[9] = target: Serine/threonine-protein kinase MRCK alpha (Homo sapiens, UniProt Q5VT25); format: functional
[10] = target: MAP kinase-activated protein kinase 3 (Homo sapiens, UniProt Q16644); format: functional;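 also: value comes from a kinome-wide profiling panel in which MAPKAPK3 is one of the panel members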
[11] = target: Serine/threonine-protein kinase D2 (Homo sapiens, UniProt Q9BZL6); format: functional;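 also: measured against PRKD2 as one member of a kinome-wide kinase profiling panel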
[12] = target: Serine/threonine-protein kinase pim-1 (Homo sapiens, UniProt P11309); format: functional
Chain of Serine/threonine-protein kinase pim-1 (P11309 whole entry): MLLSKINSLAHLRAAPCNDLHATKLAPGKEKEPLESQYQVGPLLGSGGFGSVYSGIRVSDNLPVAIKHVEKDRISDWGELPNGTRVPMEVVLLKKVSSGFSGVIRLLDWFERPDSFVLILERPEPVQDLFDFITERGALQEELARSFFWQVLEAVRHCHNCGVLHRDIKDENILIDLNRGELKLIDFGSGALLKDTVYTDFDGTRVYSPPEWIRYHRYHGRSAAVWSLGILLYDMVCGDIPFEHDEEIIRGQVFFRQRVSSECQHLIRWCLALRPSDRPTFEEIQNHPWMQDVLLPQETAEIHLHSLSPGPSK

[13] = target: Cyclin-dependent kinase 5 (Homo sapiens, UniProt Q00535); format: functional;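 also: CDK5 measured as one member of a kinase profiling panel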
[14] = target: Intestinal-type alkaline phosphatase (Homo sapiens, UniProt P09923); assay: inhibition of human intestinal alkaline phosphatase – biochemical, dose response (AID 488876); format: functional
Beta Lactamase = Beta Lactamase (Pseudomonas aeruginosa, UniProt Q932Y6); assay: beta-lactamase reporter inhibitor potency, dose response, artefact control for TLR9-MyD88 binding inhibitor project, BLA reporter cells, FRET fluorescence (AID 588341); format: cell-based;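 also: cell based assay in CHO-K1 cells stably expressing beta-lactamase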
Chain of Beta Lactamase (Q932Y6 whole entry): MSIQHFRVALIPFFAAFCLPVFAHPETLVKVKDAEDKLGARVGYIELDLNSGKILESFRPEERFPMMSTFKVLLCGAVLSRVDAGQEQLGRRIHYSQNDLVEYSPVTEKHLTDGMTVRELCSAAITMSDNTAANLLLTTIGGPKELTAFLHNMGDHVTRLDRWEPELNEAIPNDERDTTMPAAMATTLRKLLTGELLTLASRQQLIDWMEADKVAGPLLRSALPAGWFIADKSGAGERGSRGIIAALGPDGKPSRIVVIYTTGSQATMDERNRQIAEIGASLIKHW

[15] = target: T2, Alkaline phosphatase, tissue-nonspecific isozyme (Homo sapiens, UniProt P05186); assay: TNAP enzyme inhibition by screening hits, dose response, selectivity assay for mouse IAP inhibitor project, biochemical, human TNAP, uHTS hits (AID 488906); format: functional
T2 sequence (P05186 whole entry): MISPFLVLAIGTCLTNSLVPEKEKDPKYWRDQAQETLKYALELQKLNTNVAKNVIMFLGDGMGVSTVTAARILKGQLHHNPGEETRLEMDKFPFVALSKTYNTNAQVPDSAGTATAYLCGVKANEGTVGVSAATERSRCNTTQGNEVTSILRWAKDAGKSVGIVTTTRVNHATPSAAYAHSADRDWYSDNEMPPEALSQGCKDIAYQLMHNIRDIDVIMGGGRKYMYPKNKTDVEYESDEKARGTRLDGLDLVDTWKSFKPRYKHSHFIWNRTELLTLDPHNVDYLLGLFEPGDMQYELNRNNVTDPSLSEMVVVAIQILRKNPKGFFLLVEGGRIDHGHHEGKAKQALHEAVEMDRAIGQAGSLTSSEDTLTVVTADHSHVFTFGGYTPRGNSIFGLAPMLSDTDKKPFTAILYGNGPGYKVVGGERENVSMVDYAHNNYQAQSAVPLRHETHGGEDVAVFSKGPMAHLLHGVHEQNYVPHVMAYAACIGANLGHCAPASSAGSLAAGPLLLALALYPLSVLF

CHO = assay: cytotoxicity in TLR9-MyD88 CHO cells, dose response, cytotoxicity control for TLR9-MyD88 binding inhibitor project, cell-based, luminescence (AID 588339); format: functional, hamster; conditions: Cricetulus griseus;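 also: CHO cells stably coexpressing TLR9 and MyD88 fusions from primary screen; compound exposure lasted 48 hours before viability readout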
[16] = target: Intestinal-type alkaline phosphatase (Mus musculus, UniProt P24822); assay: PubChem AID 488785; format: functional
Chain of Intestinal-type alkaline phosphatase (Mus musculus, UniProt P24822) (P24822 whole entry): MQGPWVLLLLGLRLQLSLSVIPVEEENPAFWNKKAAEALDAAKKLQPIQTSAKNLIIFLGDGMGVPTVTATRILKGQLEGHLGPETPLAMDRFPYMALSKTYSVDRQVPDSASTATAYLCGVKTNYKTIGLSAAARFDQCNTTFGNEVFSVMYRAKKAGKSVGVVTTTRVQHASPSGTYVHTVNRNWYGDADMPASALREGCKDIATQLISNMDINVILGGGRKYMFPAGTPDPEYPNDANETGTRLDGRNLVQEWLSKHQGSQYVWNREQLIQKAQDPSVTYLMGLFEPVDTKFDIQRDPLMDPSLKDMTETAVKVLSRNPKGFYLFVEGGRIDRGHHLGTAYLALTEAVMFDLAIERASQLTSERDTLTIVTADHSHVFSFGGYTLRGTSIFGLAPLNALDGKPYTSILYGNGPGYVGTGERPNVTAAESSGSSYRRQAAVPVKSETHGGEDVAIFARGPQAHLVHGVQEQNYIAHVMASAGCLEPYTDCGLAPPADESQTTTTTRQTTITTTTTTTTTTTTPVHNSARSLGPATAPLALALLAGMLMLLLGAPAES

[17] = target: Serine/threonine-protein kinase PLK3 (Homo sapiens, UniProt Q9H4B4); format: functional
[18] = target: MAP kinase-activated protein kinase 2 (Homo sapiens, UniProt P49137); format: functional;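 also: measured as one member of a kinome-wide kinase panel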
[19] = target: Ribosomal protein S6 kinase alpha-3 (Homo sapiens, UniProt P51812); format: functional;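 also: measured within a kinome-wide profiling panel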
Chain of Ribosomal protein S6 kinase alpha-3 (P51812 whole entry): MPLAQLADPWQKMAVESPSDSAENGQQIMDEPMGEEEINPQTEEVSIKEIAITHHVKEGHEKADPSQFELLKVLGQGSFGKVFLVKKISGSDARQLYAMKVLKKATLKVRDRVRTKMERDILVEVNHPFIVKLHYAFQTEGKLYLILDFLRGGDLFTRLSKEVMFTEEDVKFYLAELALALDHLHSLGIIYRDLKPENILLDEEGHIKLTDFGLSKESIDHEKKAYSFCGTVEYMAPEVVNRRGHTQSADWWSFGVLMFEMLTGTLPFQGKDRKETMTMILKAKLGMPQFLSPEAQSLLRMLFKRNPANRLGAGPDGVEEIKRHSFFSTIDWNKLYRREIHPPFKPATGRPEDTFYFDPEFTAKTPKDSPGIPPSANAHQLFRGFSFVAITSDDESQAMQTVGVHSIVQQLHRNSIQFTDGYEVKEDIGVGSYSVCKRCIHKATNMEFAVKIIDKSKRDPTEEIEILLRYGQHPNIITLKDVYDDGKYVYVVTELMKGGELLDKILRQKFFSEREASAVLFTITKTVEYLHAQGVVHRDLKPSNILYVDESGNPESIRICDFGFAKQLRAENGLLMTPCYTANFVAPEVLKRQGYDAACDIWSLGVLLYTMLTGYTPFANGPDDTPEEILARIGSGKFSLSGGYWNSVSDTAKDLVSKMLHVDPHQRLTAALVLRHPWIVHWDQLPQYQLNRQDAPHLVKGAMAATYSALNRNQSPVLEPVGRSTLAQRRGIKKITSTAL

[20] = target: Casein kinase II subunit alpha (Homo sapiens, UniProt P68400); format: functional
[21] = A Cell Based Secondary Assay to Explore Cytotoxicity in HepG2 Cells of Compounds that Modulate Mycobacterium tuberculosis in Media Containing Glycerol versus Media without Glycerol (2).; format: functional
[22] = Vero cell cytotoxicity, dose response, cytotoxicity control for M. tuberculosis growth inhibitor project, Vero cells, purified and synthesized compounds, set 4 (AID 504854); format: functional; conditions: Mycobacterium tuberculosis
[23] = HepG2 cell cytotoxicity, dose response, cytotoxicity control, set 3 (AID 504853); format: functional; conditions: Mycobacterium tuberculosis
[24] = Vero cell cytotoxicity, cytotoxicity control for M. tuberculosis inhibitor project, purified and synthesized samples, set 3 (AID 504684); format: functional
[25] = THP-1 cell cytotoxicity, cytotoxicity control, set 4 (AID 504911); format: functional; conditions: Mycobacterium tuberculosis
[26] = A Cell Based Secondary Assay to Explore Cytotoxicity in THP-1 Cells of Compounds that Modulate Mycobacterium tuberculosis in Media Containing Glycerol versus Media without Glycerol (2).; format: functional
[27] = Vero cell cytotoxicity, dose response, cytotoxicity control for M. tuberculosis growth inhibitor project, Vero cells, purified and synthesized compounds, set 5 (AID 504909); format: functional; conditions: Mycobacterium tuberculosis
[28] = THP-1 cell cytotoxicity, dose response, cytotoxicity control, set 3 (AID 504852); format: functional; conditions: Mycobacterium tuberculosis
Prothrombin = Prothrombin (Bos taurus, UniProt P00735); assay: thrombin inhibition, dose response, biochemical, fluorescence polarization, uHTS hits (AID 602369); format: functional
[29] = target: Serine/threonine-protein phosphatase PP1-alpha catalytic subunit (Homo sapiens, UniProt P62136); assay: PP1 phosphatase inhibitors, dose response, biochemical, fluorescence (AID 2403);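 also: phosphatase turnover of OMFP into fluorescent 3-O-methylfluorescein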
[30] = target: Serine/threonine-protein phosphatase (Homo sapiens, UniProt Q9BPW0); assay: Counterscreen for inhibitors of PP1: fluorescence-based biochemical high throughput dose response assay to identify inhibitors of Protein Phosphatase 5 (PP5). [Related pubchem assays: 2034 (Summary (PP5 inhibitors)), 1987 (PP5 inhibitors in singlate), 2235 (PP1 inhibitors in singlate)]
[31] = target: 72 kDa type IV collagenase (Homo sapiens, UniProt P08253); assay: Dose Response validation of uHTS RPN11 inhibitor hits using a MMP-2 Fluorescence assay.; format: functional
X-box-binding protein 1 = X-box-binding protein 1 (Homo sapiens, UniProt P17861); format: functional, Cricetulus griseus;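 also: confirmatory dose-response counter-screen serving a CHOP assay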
[32] = target: 26S proteasome non-ATPase regulatory subunit 14 (Homo sapiens, UniProt O00487); assay: inhibition of proteasome subunit RPN11 – biochemical, fluorescence polarization, uHTS hits, confirmation (AID 602368); format: functional
Chain of 26S proteasome non-ATPase regulatory subunit 14 (O00487 whole entry): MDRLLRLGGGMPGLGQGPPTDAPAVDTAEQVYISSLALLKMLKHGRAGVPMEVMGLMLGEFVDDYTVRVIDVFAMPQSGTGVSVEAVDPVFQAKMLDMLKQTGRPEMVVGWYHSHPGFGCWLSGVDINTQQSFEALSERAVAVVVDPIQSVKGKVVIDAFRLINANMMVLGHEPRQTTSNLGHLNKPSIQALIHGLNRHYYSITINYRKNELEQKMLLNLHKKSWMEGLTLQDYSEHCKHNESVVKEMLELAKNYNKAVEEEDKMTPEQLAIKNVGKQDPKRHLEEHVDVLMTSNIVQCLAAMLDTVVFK

[33] = target: Protein kinase C delta type (Homo sapiens, UniProt Q05655); format: functional
[34] = target: Homeodomain-interacting protein kinase 2 (Homo sapiens, UniProt Q9H2X6); format: functional;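 also: measured within a kinome-wide kinase profiling panel, HIPK2 being one panel member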
Chain of Homeodomain-interacting protein kinase 2 (Q9H2X6 whole entry): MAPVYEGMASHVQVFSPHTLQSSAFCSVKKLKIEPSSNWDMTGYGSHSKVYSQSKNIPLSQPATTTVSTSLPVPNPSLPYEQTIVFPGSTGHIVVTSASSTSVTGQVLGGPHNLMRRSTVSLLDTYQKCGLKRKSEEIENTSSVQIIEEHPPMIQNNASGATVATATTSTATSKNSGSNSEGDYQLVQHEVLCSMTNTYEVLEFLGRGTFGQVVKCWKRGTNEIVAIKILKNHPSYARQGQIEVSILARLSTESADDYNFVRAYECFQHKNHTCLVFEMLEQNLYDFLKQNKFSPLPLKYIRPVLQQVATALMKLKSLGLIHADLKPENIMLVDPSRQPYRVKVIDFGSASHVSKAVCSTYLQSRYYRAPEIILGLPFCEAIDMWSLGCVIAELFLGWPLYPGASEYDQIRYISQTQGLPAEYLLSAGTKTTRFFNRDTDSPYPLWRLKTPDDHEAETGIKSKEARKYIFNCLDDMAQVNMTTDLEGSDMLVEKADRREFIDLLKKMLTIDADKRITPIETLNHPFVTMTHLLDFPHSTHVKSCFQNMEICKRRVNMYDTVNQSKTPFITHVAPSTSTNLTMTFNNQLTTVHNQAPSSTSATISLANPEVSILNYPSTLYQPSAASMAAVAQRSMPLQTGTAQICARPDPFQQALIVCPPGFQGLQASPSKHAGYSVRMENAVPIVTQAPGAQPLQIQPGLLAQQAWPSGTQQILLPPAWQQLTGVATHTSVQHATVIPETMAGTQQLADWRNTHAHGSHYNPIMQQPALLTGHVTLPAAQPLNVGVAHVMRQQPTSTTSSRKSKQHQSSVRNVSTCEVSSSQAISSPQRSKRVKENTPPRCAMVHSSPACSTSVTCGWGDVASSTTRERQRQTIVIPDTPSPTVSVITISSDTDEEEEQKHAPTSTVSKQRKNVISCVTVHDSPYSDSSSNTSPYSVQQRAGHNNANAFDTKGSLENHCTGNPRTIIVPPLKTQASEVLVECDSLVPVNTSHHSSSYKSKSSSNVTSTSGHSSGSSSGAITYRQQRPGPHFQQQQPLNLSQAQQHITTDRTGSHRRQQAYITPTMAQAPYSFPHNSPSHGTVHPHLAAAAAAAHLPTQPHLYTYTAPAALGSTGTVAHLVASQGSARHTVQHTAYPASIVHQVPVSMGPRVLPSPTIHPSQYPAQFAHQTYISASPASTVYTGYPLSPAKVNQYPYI

[35] = target: Protein kinase C iota type (Homo sapiens, UniProt P41743); format: functional;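 also: measured within a kinome-wide kinase panel, PRKCI as panel member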
[36] = target: Ribosomal protein S6 kinase beta-1 (Homo sapiens, UniProt P23443); format: functional;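 also: measured as one member of a kinome-wide profiling panel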
Chain of Ribosomal protein S6 kinase beta-1 (P23443 whole entry): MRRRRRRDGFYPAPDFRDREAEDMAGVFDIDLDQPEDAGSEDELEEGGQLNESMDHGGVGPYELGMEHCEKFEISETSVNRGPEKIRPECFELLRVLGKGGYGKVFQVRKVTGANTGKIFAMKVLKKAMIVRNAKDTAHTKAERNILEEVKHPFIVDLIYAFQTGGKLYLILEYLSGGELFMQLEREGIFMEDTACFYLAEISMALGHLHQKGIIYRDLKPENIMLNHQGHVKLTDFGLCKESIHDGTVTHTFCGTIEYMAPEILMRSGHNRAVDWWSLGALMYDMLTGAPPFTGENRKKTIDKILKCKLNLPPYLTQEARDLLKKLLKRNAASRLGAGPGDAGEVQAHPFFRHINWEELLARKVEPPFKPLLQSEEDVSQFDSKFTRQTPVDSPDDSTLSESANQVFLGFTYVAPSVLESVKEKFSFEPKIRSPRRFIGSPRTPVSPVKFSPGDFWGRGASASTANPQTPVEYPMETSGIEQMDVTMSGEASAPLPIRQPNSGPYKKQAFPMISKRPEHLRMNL

[37] = target: Protein-tyrosine kinase 6 (Homo sapiens, UniProt Q13882); format: functional
[38] = target: Tyrosine-protein kinase ABL1 (Homo sapiens, UniProt P00519); format: functional
[39] = target: Protein-tyrosine kinase 2-beta (Homo sapiens, UniProt Q14289); format: functional
[40] = target: Proto-oncogene tyrosine-protein kinase ROS (Homo sapiens, UniProt P08922); format: functional;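 also: ROS1 tested as one member of a kinome-wide kinase panel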
[41] = target: Serine/threonine-protein kinase Chk2 (Homo sapiens, UniProt O96017); format: functional;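 also: CHEK2 entry within a kinome-wide screening panel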
[42] = target: Fibroblast growth factor receptor 3 (Homo sapiens, UniProt P22607); format: functional
[43] = target: Receptor tyrosine-protein kinase erbB-4 (Homo sapiens, UniProt Q15303); format: functional;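 also: ERBB4 member of a kinome-wide kinase profiling panel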
[44] = target: Casein kinase I isoform alpha (Homo sapiens, UniProt P48729); format: functional
[45] = target: Mitogen-activated protein kinase 8 (Homo sapiens, UniProt P45983); format: functional;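 also: value comes from one member of a kinome-wide kinase profiling panel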
Chain of Mitogen-activated protein kinase 8 (P45983 whole entry): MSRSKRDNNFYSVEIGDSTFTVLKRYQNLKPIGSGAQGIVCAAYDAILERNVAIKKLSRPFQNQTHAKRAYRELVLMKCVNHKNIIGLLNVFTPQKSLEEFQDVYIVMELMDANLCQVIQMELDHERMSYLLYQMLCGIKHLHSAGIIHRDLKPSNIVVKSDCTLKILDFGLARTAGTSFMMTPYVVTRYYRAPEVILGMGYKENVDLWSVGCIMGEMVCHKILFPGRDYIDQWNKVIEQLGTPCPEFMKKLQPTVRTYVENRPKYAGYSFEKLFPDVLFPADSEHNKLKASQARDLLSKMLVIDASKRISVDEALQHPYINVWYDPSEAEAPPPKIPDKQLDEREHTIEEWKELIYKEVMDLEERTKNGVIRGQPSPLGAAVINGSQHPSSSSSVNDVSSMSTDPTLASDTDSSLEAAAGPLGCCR

[46] = target: Mitogen-activated protein kinase 12 (Homo sapiens, UniProt P53778); format: functional;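 also: measured as one member of a kinome-wide kinase profiling panel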
[47] = target: cGMP-dependent protein kinase 1 (Homo sapiens, UniProt Q13976); format: functional;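 also: value from a kinome panel screen with PRKG1 as the panel member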
[48] = target: Calcium/calmodulin-dependent protein kinase type II subunit gamma (Homo sapiens, UniProt Q13555); format: functional
[49] = target: Glycogen synthase kinase-3 beta (Homo sapiens, UniProt P49841); assay: GSK3beta kinase inhibitors, dose response, biochemical, microfluidics, dry powder samples, set 2 (AID 623989); format: functional
[50] = target: Glycogen synthase kinase-3 alpha (Homo sapiens, UniProt P49840); assay: human GSK3 alpha kinase inhibition, dose response, selectivity assay for GSK3beta inhibitor project, biochemical, microfluidics, dry powder samples, set 2 (AID 623978); format: functional
Chain of Glycogen synthase kinase-3 alpha (P49840 whole entry): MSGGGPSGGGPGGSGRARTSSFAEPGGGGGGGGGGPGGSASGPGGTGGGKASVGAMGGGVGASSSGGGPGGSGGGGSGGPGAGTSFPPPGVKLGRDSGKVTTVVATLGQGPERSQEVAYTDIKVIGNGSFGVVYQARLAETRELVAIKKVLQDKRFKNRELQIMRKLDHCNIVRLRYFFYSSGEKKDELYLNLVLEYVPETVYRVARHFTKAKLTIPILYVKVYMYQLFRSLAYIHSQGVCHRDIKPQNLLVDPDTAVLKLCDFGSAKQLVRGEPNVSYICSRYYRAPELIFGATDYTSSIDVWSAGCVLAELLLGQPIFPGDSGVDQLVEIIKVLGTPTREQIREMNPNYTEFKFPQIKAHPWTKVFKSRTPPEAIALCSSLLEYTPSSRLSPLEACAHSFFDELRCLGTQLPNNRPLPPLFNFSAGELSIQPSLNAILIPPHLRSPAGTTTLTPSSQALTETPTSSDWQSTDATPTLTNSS

## O=C(Nc1ccc(CO)cc1)c1cnn2c(-c3ccccc3)ccnc12
LIM domain kinase 1
  Ki: > 10 µM (inactive)
[1]
  Ki: > 10 µM (inactive)
[2]
  Ki: 2.51 µM (active)
[3]
  Ki: 1.26 µM (active)
[4]
  Ki: 0.794 µM (active)
[5]
  Ki: > 10 µM (inactive)
[6]
  Ki: > 7.94 µM (inactive)
[7]
  Ki: > 10 µM (inactive)
[8]
  Ki: > 10 µM (inactive)
[9]
  Ki: > 10 µM (inactive)
[10]
  Ki: > 10 µM (inactive)
[11]
  Ki: > 10 µM (inactive)
[12]
  Ki: > 10 µM (inactive)
[13]
  Ki: > 10 µM (inactive)

## COc1cc(/C=C/C(O)=C/C(=O)/C=C/c2ccc(O)cc2)ccc1O [DEMETHOXYCURCUMIN]
[14]
  IC50: > 100 µM (inactive)
Beta Lactamase
  IC50: 8.09 µM (active)
[15]
  IC50: > 100 µM (inactive)
CHO
  IC50: 39.3 µM (inactive)
[16]
  IC50: 8.38 µM (active)

## Nc1ccc2[nH]c(=O)cnc2c1
[17]
  Ki: 6.31 µM (active)
[18]
  Ki: 10 µM (active)
[19]
  Ki: 7.94 µM (active)
[20]
  Ki: 12.6 µM (active)

## Cc1cc(C)n2nc(N)c(/N=N/c3ccccc3)c2n1
[21]
  CC50: > 50 µM (active)
[22]
  CC50: 93 µM (active)
[23]
  CC50: > 50 µM (active)
[24]
  CC50: 83.7 µM (active)
[25]
  CC50: > 99.5 µM (active)
[26]
  CC50: > 100 µM (active)
[27]
  CC50: > 100 µM (active)
[28]
  CC50: > 100 µM (active)

## O=C(N/N=C/c1ccccn1)c1cc(-c2ccc3ccccc3c2)[nH]n1
Prothrombin
  IC50: 28.7 µM (active)
[29]
  IC50: 6.53 µM (active)
[30]
  IC50: > 67 µM (not active)
[31]
  IC50: > 100 µM (inactive)
X-box-binding protein 1
  Absolute IC50 (XBP1): 10 µM
[32]
  IC50: 13 µM (active)

## CCC1C(=O)N(C)c2cnc(Nc3ccc(C(=O)NC4CCN(C)CC4)cc3OC)nc2N1C1CCCC1 (stereo unspecified)
[33]
  Ki: > 6.31 µM (inactive)
[34]
  Ki: > 3.16 µM (inactive)
[35]
  Ki: > 5.01 µM (inactive)
[36]
  Ki: > 6.31 µM (inactive)
[37]
  Ki: > 2.51 µM (inactive)
[38]
  Ki: > 0.631 µM (inactive)
[39]
  Ki: 0.631 µM (active)
[40]
  Ki: > 2 µM (inactive)
[41]
  Ki: 1.58 µM (active)
[42]
  Ki: > 2 µM (inactive)
[43]
  Ki: > 3.98 µM (inactive)
[44]
  Ki: > 6.31 µM (inactive)
[45]
  Ki: > 3.16 µM (inactive)
[46]
  Ki: > 6.31 µM (inactive)
[12]
  Ki: > 10 µM (inactive)
[47]
  Ki: > 2 µM (inactive)
[48]
  Ki: 0.2 µM (active)

## Nc1nc(NCC2CCCO2)nc(Nc2ccc(F)cc2)c1[N+](=O)[O-] (stereo unspecified)
[49]
  AC50: 0.802 µM (active)
[50]
  AC50: 2.42 µM (active)
